Assay results: article PMC9834240, “Senescent cells perturb intestinal stem cell differentiation through Ptk7 induced noncanonical Wnt and YAP signaling” (Nature Communications, 2023)
“And” between values parts separate entries of the source, which are not always exact repeats. Equal values may be shown once.

B1: sPtk7: soluble/shed N-terminal extracellular domain of Ptk7 (protein)
chain: AIVFIKQPSSQDALQGRRALLRCEVEAPGPVHVYWLLDGAPVQDTERRFAQGSSLSFAAVDRLQDSGTFQCVARDDVTGEEARSANASFNIKWIEAGPVVLKHPASEAEIQPQTQVTLRCHIDGHPRPTYQWFRDGTPLSDGQSNHTVSSKERNLTLRPAGPEHSGLYSCCAHSAFGQACSSQNFTLSIADESFARVVLAPQDVVVARYEEAMFHCQFSAQPPPSLQWLFEDETPITNRSRPPHLRRATVFANGSLLLTQVRPRNAGIYRCIGQGQRGPPIILEATLHLAEIEDMPLFEPRVFTAGSEERVTCLPPKGLPEPSVWWEHAGVRLPTHGRVYQKGHELVLANIAESDAGVYTCHAANLAGQRRQDVNITVATVPSWLKKPQDSQLEEGKPGYLDCLTQATPKPTVVWYRNQMLISEDSRFEVFKNGTLRINSVEVYDGTWYRCMSSTPAGSIEAQARVQVLEKLKFTPPPQPQQCMEFDKEATVPCSATGREKPTIKWERADGSSLPEWVTDNAGTLHFARVTRDDAGNYTCIASNGPQGQIRAHVQLTVAVFITFKVEPERTTVYQGHTALLQCEAQGDPKPLIQWKGKDRILDPTKLGPRMHIFQNGSLVIHDVAPEDSGRYTCIAGNSCNIKHTEAPLYVVDKPVPEESEGPGSPPPYKMIQT
modifications: left off: Fc (human IgG1, from the anti-hIgG1-Fc detection antibody), end not stated, kept
notes: soluble/shed N-terminal extracellular domain of Ptk7

Key:
[1] = system: MEFs; test: SA-β-Gal staining; type: cell-based, mouse; conditions: X-ray irradiation or doxorubicin (250 nM, 3 days)
Procedure: Staining was performed with the Senescence Detection Kit (Abcam, #ab65351) following the manufacturer’s protocol. Briefly, MEFs were fixed for 15 min with 1× fixation solution, washed with PBS, then stained overnight at 37 °C in 1× staining solution. Brightfield images were captured on the Zeiss Axio Imager M2 microscope.

[2] = system: soluble Ptk7 (sPtk7) shed by MEFs; test: Western blot for sPtk7 in conditioned media; type: cell-based, mouse
Procedure: Twenty-four hours before collecting conditioned media (CM), MEFs were washed with serum-free DMEM twice, and serum-free DMEM was added. After 24 h in serum-free DMEM, this CM was collected, filtered using Steriflip filters (Millipore, #SE1M179M6) to remove cell debris, and concentrated using centrifugal filter units (Amicon ultra-15 centricon; Millipore, # UFC900324). To collect CM without sPtk7, TAPI-1 (Millipore, #59053) or GM6001 (Sigma-Aldrich, #364206) containing serum-free DMEM instead of serum-free DMEM was added to the cells. To inhibit Wnt secretion, IWP-L6 (Sigma-Aldrich, #504819) containing serum-free DMEM instead of serum-free DMEM was added to the cells. CM was filtered and dialyzed for 24–48 h to remove the inhibitors before concentration. Concentrated CM from equal numbers of MEFs was mixed with IntestiCult Organoid Growth Medium (Stem Cell Technologies, #06005) and added to the organoid cultures.
Conditioned media corresponding to the same number of cells were loaded for SDS–PAGE. Total cell and tissue lysates of mouse fibroblasts and intestine were prepared using RIPA lysis buffer (Thermo Fisher Scientific, #89900) with protease/phosphatase inhibitor (Thermo Fisher Scientific, #1861281). Protein concentration was measured with BCA protein assay kit (Thermo Fisher Scientific, #23227), and equal amount of proteins were loaded for SDS–PAGE. […]

[3] = system: β-Catenin-dependent Wnt signaling (HEK293-TB cells); test: TOPbrite dual-luciferase Wnt reporter assay; type: cell-based; conditions: SF.3e
Procedure: Generation of HEK293 cells stably expressing a TOPbrite firefly luciferase Wnt reporter and pRL-SV40 Renilla luciferase (HEK293-TB) was previously described. HEK293-TB cells were maintained in DMEM/F12 (50:50), supplemented with 10% FBS, 2 mM Glutamax (Gibco, #35050-061) and 40 μg/ml hygromycin (Cellgro, #30-240-CR). For the luciferase reporter assay, HEK293-TB cells were seeded in 96-well plates (Falcon, #353377). The next day, cells were treated with indicated Wnt ligands (50 ng/ml) or CM diluted in culture media. After 24 h, the firefly and Renilla luciferase activity was measured using Dual-Glo Luciferase Assay system (Promega, #E2940) on a Perkin Elmer EnVision multilabel reader. The ratios of firefly luminescence to Renilla luminescence were calculated and normalized to control samples that were not treated.

[4] = system: mouse intestinal organoids; test: cystic organoid percentage, organoids treated with recombinant Wnt ligands (Wnt3a, Wnt5a, Wnt11); type: cell-based; conditions: for percentage of cystic organoids: Fig. 4e, individual mice, n = 3
Procedure: The jejunum part of the small intestine was removed, flushed with PBS, opened longitudinally, then cut into 0.5 cm pieces. The collected tissues were washed with ice cold PBS multiple times by vortexing and incubated in PBS containing 2.5 mM EDTA for 5 min at 37 °C. After gentle shaking and aspiration, tissues were incubated in PBS containing 5 mM EDTA for 7 min at 37 °C. Tissues were then washed with PBS to remove EDTA and vigorously shaken to release crypts. The released crypts were passed through 70 μm strainers, washed with PBS, and pelleted by centrifugation at 200 × g. Resuspended crypts were mixed with Matrigel (Corning, #356231; Lot#8218007) and pipetted into culture plates. After mixture of crypts and Matrigel solidified, IntestiCult Organoid Growth Medium (Stem Cell Technologies, #06005; Lots #1000021927, #1000034230, #1000037372) was added. Seven days after seeding, organoids were resuspended in dissociation buffer (Gentle Cell Dissociation Reagent; Stem Cell Technologies, #07174), dissociated by pipetting, and seeded for experiments.
3-4 biological replicates of organoids from different mice were used per condition. Organoids were cultured in the indicated media, inhibitors, antibodies and/or recombinant proteins for 5 d and fixed in 4% formaldehyde in PBS. Organoids were imaged with a 4× Plan Fluor objective (NA: 0.13, Nikon) on a Nikon Ti-E inverted microscope equipped with a Neo scMOS camera (Andor, Oxford Instruments), a linear encoded automated stage (Applied Scientific Instrumentation), all run by NIS Elements software (Nikon). Organoids were imaged in brightfield and images covering the whole well were stitched and focused into one image projection with an extended depth of focus module (EDF; Nikon). One hundred to 200 organoids per replicate per condition were counted and used for quantification. The number of budding organoids in each condition was normalized by the number of budding organoids in untreated or DMSO treated controls to calculate cystic organoid percentage:1 Cysticorganoidpercentage=100×1−Numberofbuddingorganoidsfromexperiment/Numberofbuddingorganoidsfromcontrol

[5] = system: cytosolic Ca2+ in mouse intestinal organoids; test: live Ca2+ imaging of mouse intestinal organoids (GCaMP6f/tdTomato: baselined area under curve, peak number, height, width); type: cell-based; conditions: live organoids expressing GCaMP6f
Procedure: Z stacks were acquired every 10 s.
Z-stack images were converted to mean intensity projections and, where required; background was subtracted using a rolling ball algorithm. Segmentation was conducted on a max-projection over-time of the GCaMP6f channel using Cellpose’s pre-trained “Cytoplasm” classifier. Mean intensity traces were measured in each ROI over the time course in both the GCaMP6f and TdTomato channels using scikit-image[138]. Ca^2+ oscillation patterns were calculated in an unsupervised, automated manner using MATLAB. Mean intensity traces were smoothed using a Savitzky-Golay filter and peaks were identified using the “findpeaks” algorithm from the MATLAB Signal Processing Toolbox. Graphs for GCaMP6f/tdTomato fluorescence ratio, peak numbers, peak height, peak width and baselined area under the curve were generated using Python matplotlib and seaborn packages. Statistical analysis was performed using Python SciPy and scikit-post-hoc packages.

[6] = system: biotinylated Wnt3a; test: ELISA binding to Wnt3a; parameters: species or system mouse; conditions: PTK7 with FZD7 CRD
Procedure: (§1) Proteins used in ELISAs were obtained from R&D Systems: PTK7-Fc (R&D Systems, #9799-TK), biotinylated Wnt3a (R&D Systems, #BT1324), biotinylated Wnt5a (R&D Systems, #BT645). […] Assay plates (384 Maxisorp plates, Nunc, # 464718) were prepared by incubation overnight with 30 µl/well Neutravidin (2 µg/ml, Thermo Fisher Scientific, #31055) in PBS at 4 °C. Plates were emptied and incubated with 100 µl/well of blocking buffer (PBS, 2% bovine serum albumin, 0.01% NaN3) for 1 h at room temperature with shaking. Blocking buffer was aspirated and plates were washed 8x with 70 µl/well of PBS-T. In parallel, bio-Wnt3a or bio-Wnt5a were incubated in helper plates (384 well plates, Nunc; #264574) with a dilution series of PTK7-Fc or FZD7-His in the presence or absence of FZD7-His as a competitor in assay diluent (PBS + 0.5 % BSA + 15 ppm ProClin 300 (Sigma-Aldrich, #48914-U) for 1 h at 4 °C. Protein mixtures (25 µl/well) were transferred from helper plates to 3 wells of assay plates (technical triplicates), and incubated for 1 h at 4 °C. Assay plates were aspirated and washed 8× with 70 µl/well of PBS-T. Binding was detected by 25 µl/well of anti-hIgG1-Fc-HRP (0.2 µg/ml, Thermo Fisher Scientific, #A-10648) or anti-His-tag-HRP (0.2 µg/ml, Abcam, #ab1187) in assay diluent, incubated for 1 h at 4 °C. […] Absorbance at 450 nm was recorded with a plate reader. […]

[7] = system: biotinylated Wnt5a; test: ELISA binding to Wnt5a; parameters: species or system human/mouse (hmWnt5a); conditions: Wnt5a versus Wnt3a
Procedure: as §1

| Molecule | senescence (SA-β-gal) [1] | levels of sPtk7 in conditioned media [2] | TOPbrite dual-luciferase Wnt reporter activity ([3]; replicate 1) | TOPbrite dual-luciferase Wnt reporter activity ([3]; replicate 2) | TOPbrite dual-luciferase Wnt reporter activity ([3]; replicate 3) | TOPbrite dual-luciferase Wnt reporter activity ([3]; replicate 4) | percentage of cystic organoids ([4]; Wnt3a 25 ng/ml) | percentage of cystic organoids ([4]; Wnt3a 50 ng/ml) | percentage of cystic organoids ([4]; Wnt3a 100 ng/ml) | percentage of cystic organoids ([4]; Wnt3a 250 ng/ml) | percentage of cystic organoids ([4]; Wnt3a 500 ng/ml) | induction of cystic organoids ([4]; recombinant Wnt ligand added to crypt cultures) | effect on cytosolic Ca2+ levels and oscillations [5] | competition for binding to Wnt3a or Wnt5a [6] | binding to Wnt3a and Wnt5a, relative affinity [7] |
| --- | --- | --- | --- | --- | --- | --- | --- | --- | --- | --- | --- | --- | --- | --- | --- |
| COc1cccc2c1C(=O)c1c(O)c3c(c(O)c1C2=O)C[C@@](O)(C(=O)CO)C[C@@H]3O[C@H]1C[C@H](N)[C@H](O)[C@H](C)O1 [doxorubicin] | confirmed senescence | contained higher levels of sPtk7 | – | – | – | – | – | – | – | – | – | – | – | – | – |
| Wnt3a [reference compound] | – | – | 83.0786 | 67.4901 | 77.6835 | 73.6039 | 7.495% and 3.142% and 6.766% | 18.7879% and 6.422% and 6.8556% | 13.092% and 2.902% and 16.5461% | 21.7379% and 11.3578% and 13.1232% | 37.371% and 19.4444% and 31.0445% | dose-dependently increased organoids with cystic morphology | decreased cytosolic Ca^2+ levels | – | – |
| B1 | – | – | – | – | – | – | – | – | – | – | – | – | modulate cytosolic Ca^2+ oscillations | unaffected by a saturating amount of FZD7 CRD | bound Wnt5a with higher affinity |
